# Read-outs that look alike come from different tables or passages of the source.
# How the values were obtained:
# [1] = system: Glial Glutamate Transporter (GLAST and GLT1); assay: Binding of [3H]-4MG to rat forebrain membrane homogenates in Na+-containing HEPES buffer; conditions: FIG. 5
# Experimental: (§1) Forebrain tissue from female Sprague Dawley rats was homogenized in HEPES buffer containing Na^+, and membranes were washed twice in the same buffer. Binding experiments were also performed in this buffer. Initial studies determined appropriate parameters for time (15 minutes incubation at 4° C.) and drug concentration (20 nM [^3H]-4MG) to be used in subsequent experiments. Following incubation of [^3H]-4MG with or without other compounds, binding was terminated by rapid filtration through Whatman GF/B filter discs and washing 3 times with buffer using a Brandel cell harvester. Binding was determined by scintillation spectrometry. A full range of association, dissociation, saturation and inhibition studies was performed over varying incubation times (up to 60 min). Data were analysed using computer-assisted curve fitting. Values are expressed as mean of at least triplicate determinations and multiple experiments.
# (§2) A full range of association, dissociation, saturation and inhibition studies was performed over varying incubation times (up to 60 min). Data were analysed using computer-assisted curve fitting. Values cited are expressed as mean of at least triplicate determinations and multiple experiments.
# [2] = target: T1, Glial Glutamate Transporter (GLAST and GLT1); assay: as above; conditions: for Displacement of 4MG binding: at or above 100 μM, FIG. 5
# T1 construct: Bmax; other: 20 nM [3H]-4MG, 4° C; KD
# Experimental: as §1, §2
# [3] = Hydrolysis of prodrug to the acid form; assay type: in vitro ADME
# Text: (§3) The ester, carbonate, and amine bond in any prodrug forms of compounds identified by the disclosed method can be readily cleaved in vivo. Therefore, prodrug compositions can be hydrolyzed to the corresponding acid forms in plasma.
# [4] = Bioavailability and half-life of prodrug; assay type: in vivo; conditions: compared with 1
# Text: as §3
# Analgesic effect test = assay type: in vivo; conditions: compared with 1
# Text: as §3
# [5] = 20 nM [3H]-4MG, 4° C., read-out: Displacement of 4MG binding to rat brain membrane homogenates, IC50
compound,measurement,setting,value
"N[C@@H](Cn1cc(I)c(=O)[nH]c1=O)C(=O)O [IW, iodowillardine]",Effect on 4MG and/or D-aspartate binding to GluTs,[1],failed to affect
N[C@@H](CC(=O)O)C(=O)O [L-aspartate],IC50,[2]; [5],7.5 µM
"NCC(=O)O [GLY, glycine]",Effect on 4MG and/or D-aspartate binding to GluTs,[1],failed to affect
N[C@H](CC(=O)O)C(=O)O [D-aspartate],IC50,[2]; [5],10.9 µM
C[C@H](C[C@H](N)C(=O)O)C(=O)O [SYM 2081],IC50,"[2]; Table 2, read-out: Inhibition of Binding of [3H]-4MG to Glial Glutamate Transporter, IC50",29 µM
"CN[C@H](CC(=O)O)C(=O)O [NMDA, N-methyl-D-aspartate]",Displacement of 4MG binding,[2],failed to significantly displace
"C[C@H](C[C@H](N)C(=O)O)C(=O)O [4MG, (2S,4R)-4-methylglutamate]",Kd,[2],5.4 µM
same,IC50,"[2]; read-out: Displacement of 4MG binding to rat brain membrane homogenates, IC50",6.7 µM
"N[C@@H](COS(=O)(=O)O)C(=O)O [SOS, L-serine-O-sulphate]",IC50,[2]; [5],40 µM
"NCCCC(=O)O [GABA, γ-aminobutyric acid]",Effect on 4MG and/or D-aspartate binding to GluTs,[1],failed to affect
CC(C)(C)c1o[nH]c(=O)c1CC(N)C(=O)O (stereo not drawn) [ATPA],Effect on 4MG and/or D-aspartate binding to GluTs,[1],failed to affect
"COC(=O)[C@H](C)C[C@H](N)C(=O)OC [compound 2, (2S,4R)-4-methyl glutamic acid dimethyl ester]","Hydrolysis to (2S,4R)-4-methyl glutamic acid (1)",[3],readily hydrolyzed
same,Bioavailability,[4],enhanced bioavailability
same,Half-life,[4],longer half-life
same,Analgesic effect,Analgesic effect test,analgesic effect similar to 1
"N[C@@H](Cn1cc(F)c(=O)[nH]c1=O)C(=O)O [FW, fluorowillardiine]",Displacement of 4MG binding,[2],failed to significantly displace
"L-anti-endo-3,4-methanopyrrolidine dicarboxylate [MPDC]",IC50,[2]; [5],4 µM
"N[C@@H](CCC(=O)O)C(=O)O [glutamate, L-glutamic acid]",IC50,[2]; [5],6.1 µM
"O=C(O)[C@H]1CN[C@H](C(=O)O)C1 [PDC, L-trans-pyrrolidine-2,4-dicarboxylate]",IC50,[2]; [5],2.9 µM
"N[C@H](C(=O)O)[C@H]1C[C@H]1C(=O)O [CCG-III, (2S,3S,4R)-2-(carboxycyclopropyl)glycine]",IC50,[2]; [5],1.2 µM
"Cc1onc(O)c1CC(N)C(=O)O (stereo not drawn) [AMPA, α-amino-3-hydroxy-5-methyl-4-isoxazolepropionate]",Displacement of 4MG binding,[2],failed to significantly displace

# — patent US20020188022A1, “Methods for modulation, stimulation, and inhibition of glutamate reuptake” (Annovis. Inc., priority 2000, published 2002)
